Consider one compound from patent US10413579B2, “Pharmaceutical composition for preventing or treating asthma comprising Pistacia weinmannifolia J. Poiss. ex Franch extract or fraction thereof” (Korea Research Institute of Bioscience and Biotechnology, priority 2013, dated 2019).

Holding throughout (assay type): in vivo, mouse
Test [1] deals with serum IgE. In words: Serum IgE in ovalbumin-sensitized asthma mice (immunoenzymatic assay). As to conditions: 30 mg/kg PO. The method, then:
(§1) In the present experiment, 6-week-old Balb/c female mice having a body weight of about 20 g in average were used as experimental animals. After 1 week of acclimation, animals showing no abnormal findings on physical examination were used as subjects. 2 mg of aluminium hydroxide (A8222, Sigma, St. Louis, Mo.) and 20 μg of ovalbumin (A5503, Sigma, St. Louis, Mo.) were suspended in 200 μl of phosphate buffer (pH 7.4) and then injected into the peritoneal cavity of mouse for sensitization. On days 21 to 23 after the first intraperitoneal administration of ovalbumin, inhalation challenge was performed for 30 min with 1% ovalbumin using an ultrasonic atomizer. 24 hours after the last antigen administration, airway hyperresponsiveness was measured. 48 hours later, a lethal dose of pentobarbital (Entobal, Hanlim Pharmaceutical Co., Ltd.) was administered, body weight measurement and bronchotomy were performed, and bronchoalveolar lavage was performed with a total 1.2 mL of physiological saline, and then, samples were collected. […] Seven white mice were used for each group.
(§2) To measure serum IgE and ovalbumin-specific IgE, an immunoenzymatic assay was used. IgE level was measured using a commercially available kit (Biolegend Ins., California, USA). […] For color development, 3,3′,5,5′-tetramethylbezidine substrate was allowed to react, and the spectroscopic absorbance was measured at 450 nm.

Test [2] relates to ovalbumin-specific IgE. Kind of test: Ovalbumin-specific IgE in serum of ovalbumin-sensitized asthma mice (ELISA). As to conditions: 30 mg/kg PO, mean±S.E. On the procedure:
as §1, §2

The test system of test [3] is ovalbumin-sensitized asthma animal models. In words: Inflammatory cells in bronchoalveolar lavage fluid of ovalbumin-sensitized asthma mice. As to conditions: 30 mg/kg PO. The method, then: as §1
In test [4] the test system is interleukin-4. Kind of test: Interleukin-4 in bronchoalveolar lavage fluid (ELISA). As to conditions: 30 mg/kg PO, mean±S.E. On the procedure:
as §1, with “group. […]” for “group.”
(§3) Briefly, 100 μl of bronchoalveolar lavage fluid was added to a well plate and allowed to react for 1 hour. […] Absorbance was measured at 450 nm.

The subject of test [5] is interleukin-5. Kind of test: Interleukin-5 in bronchoalveolar lavage fluid (ELISA). As to conditions: 30 mg/kg PO, mean±S.E. The method, then:
as §1, with “group. […]” for “group.”
as §3

The subject of test [6] is interleukin-13. In words: Interleukin-13 in bronchoalveolar lavage fluid (ELISA). As to conditions: 30 mg/kg PO, mean±S.E. On the procedure: as §1, with “group. […]” for “group.”
as §3

For `CC(C)(O)c1ccccc1CC[C@@H](SCC1(CC(=O)O)CC1)c1cccc(/C=C/c2ccc3ccc(Cl)cc3n2)c1` [Mon, montelukast], in test [1], the “serum IgE antibody level” value was found to be 1.8 ± 0.28 µg/mL. Also, the IgE in test [1] (mean±S.E., Table 1) amounted to 1.8 ± 0.28 ng/mL. In test [2], the “OVA-specific IgE” value is 108 ± 83.0 ng/mL. In addition, the “number of eosinophils in bronchoalveolar lavage fluid” value in test [3] (OVA group (74±16.0)×10^5) is on record as 36±20.4 ×10^5. Also, the “number of total inflammatory cells in bronchoalveolar lavage fluid” value in test [3] (OVA group (180±22.2)×10^5) was 98±19.3 ×10^5. The IL-4 in test [4] came to 34.6 ± 6.52 pg/mL. Also, in test [5], the IL-5 is 32.4 ± 4.46 pg/mL. In test [6], this compound registered an IL-13 of 65.7 ± 18.86 pg/mL.
